Reference: publication PMC10424183, “Determination of Ligand-Binding Affinity (Kd) Using Transverse Relaxation Rate (R2) in the Ligand-Observed ^1H NMR Experiment and Applications to Fragment-Based Drug Discovery” (Journal of Medicinal Chemistry, 2023)
Like-named read-outs stand apart in the source and are kept apart here.

How the values were obtained:
BCL6 BTB [1] = target: T1, BCL6 BTB (Homo sapiens, UniProt P41182); design: method as in PMID 36329085; details: SPR; read-out: Kd value from SPR assay (printed in the Ki column, footnote a); cited from earlier work
T1 construct: made in house

BCL6 BTB [2] = target: T1, BCL6 BTB; experiment: R2KD ligand-observed 1H NMR assay (Kd from transverse relaxation rate R2); format: binding
Protocol: Four aqueous stock solutions were prepared in Eppendorf Safe-Lock tubes (Cat no. 0030120094) by manual pipetting: (1) ligand aqueous stock solution was prepared by adding 50 mM ligand DMSO-d6 solution to aqueous buffer; (2) dimethyl sulfoxide (DMSO) aqueous stock solution was prepared by adding the same volume of DMSO-d6 as ligand DMSO-d6 solution to aqueous buffer; (3) protein aqueous stock solution was prepared by adding protein solution to aqueous buffer; and (4) aqueous solution was the buffer used in the assay.
Samples were prepared on a Bruker SamplePro-Tube liquid handler by mixing different volume of the four aqueous stocks in 96-well microplates (Greiner 650201) and then transferred to 3 mm NMR tubes (Figure 2). 10 samples were prepared: samples 1–8 containing increasing ligand concentration (maintaining constant protein concentration); sample 9 and 10 containing only ligands at two different concentrations (protein absent). These two samples served as control samples to obtain the R2 values of free ligand. The final percentage of DMSO-d6 in all samples were identical to minimize possible impacts of DMSO-d6.
The R2 values of four aromatic ^1H-NMR signals (Figure 3B) were experimentally determined (Figure 3C) and (R2,obs – R2F) * LT values were calculated using Excel and used as y-axis values in Prism, while ligand concentrations were plotted as the x-axis values (Figure 3D). All four NMR peaks were used to fit a global Kd with non-linear regression using a customized equation (see Experimental Section), while α values were fitted as an individual parameter for each peak (Figure 3E) as α values differ depending on the individual proton’s environment. While it was possible to fit Kd values using individual NMR peaks and then average the values (Figure 3F), we found using a global fitting algorithm increased robustness of curve fitting and better accommodated outliers in the data. The goodness of fit was judged by 95% confidence interval (CI) (profile likelihood) values and R squared value. The global Kd obtained here is close to the Ki value (54 vs 50 μM) although from our accuracy study, the differences can be larger (see section “Assay Accuracy”).
NMR data were collected at 298 K on a Bruker AVANCE NEO 600 MHz spectrometer, equipped with 5 mm TCI CryoProbe using Bruker Topspin 4.0. The T2 relaxation experiment was acquired using pulse program CPMG with 3-9-19 pulse sequence with gradients incorporated to suppress the water signal.[22] Extra water suppression was achieved by adding presaturation during D1. The spin-echo period (delay-180°-delay) was set to 1 msec (d20 is 500 μs), and the relaxation delay (d1) was set to 10 s. The pseudo-2D experiment contained nine slices with spin-echo period repeated the following times: 4, 20, 100, 200, 300, 500, 700, 1000, and 2000. The T2 relaxation experiment was processed using MestReNova 14.1, and Data Analysis Module of MestReNova was used to obtain integrals of individual ^1H-NMR signals, which were used to calculate R2 with equation I = I0exp (−tR2).
Nonlinear regression analysis was carried out using GraphPad Prism 9.2.0. Equation 12 was defined in user-defined equations as: Y = 0.5α*((X + Kd + P) −sqrt((sqr(X + Kd + P)) – 4*P*X)) where Y was calculated from eq 13 and X is the total ligand concentration. Three parameters: P, α, and Kd were in the equation with the initial value set at 1. In the default constraints setting, P was “constant equal to” the total protein concentration, Kd was “shared value for all data sets”, and α was “must be greater than […]”. CIs of parameters was calculated at 95% level using Asymmetrical (Profile-likelihood) CI.

- Kd (BCL6 BTB [2]; R2KD assay upper detection limit example, read-out: largest Kd determined accurately): ~1000 µM
- Kd (BCL6 BTB [2]; R2KD assay, repeated three times (average), read-out: Kd): 1050 µM
- Kd (BCL6 BTB [2]; single experiment, four peaks, global Kd fitting, unit inferred, read-out: Kd, global (shared) fit): 905 µM
Structure (SMILES): Cc1cc(Nc2ccc(F)cc2)n2ncnc2n1 [CCT040036]
- Kd (BCL6 BTB [1]): 1500 µM
